Patent US8778337B2, “Use of S-adenosylmethionine (SAM) and superoxide dismutase (SOD) for the preparation of medicaments for the treatment of alzheimer's disease” (Gnosis S.p.A., priority 2008, dated 2014)

Assays:
SK-N-BE cell cultures = assay: SAM uptake in cell cultures (HPLC and tritiated SAM scintillation count); type: in vitro ADME, human; details: 100 μM SAM in F14 medium, 96 hours, HPLC; control 1
Experimental: For the cell cultures, 100 μM of SAM was added to the F14 cell culture medium (complete or deprived of vitamin B, according to trial design) and the cultures were stopped after 96 hours.
For the mice, 400 μg/day of SAM was administered orally by feeding probe needle, and the animals were sacrificed after 2 months; the animals were fed on a complete diet or a vitamin B-deprived diet, according to trial design. SAM levels were analysed by HPLC with a Varian HPLC system. The cells and homogenised brains were lysed in distilled water, and the macromolecules were precipitated with 1.5 M PCA. Standard SAM curves were calculated before and after the experimental samples. For the analysis of tritiated SAM, cells were treated as described above, while mice were treated for 4 days to minimise exposure to the radioactive drug. The cells and homogenised brains were lysed in distilled water. […] The uptake of radioactive SAM was measured by scintillation with a beta counter.
To establish whether the increase was due to uptake of exogenous SAM as opposed to an increase in the endogenous reserves in the presence of elevated extracellular concentrations of the molecule, a test was performed with radioactive SAM. 100 μM of tritiated SAM (SAM[3H]) was added to SK-N-BE cell cultures, and the uptake was evaluated by cell lysis and radioactivity count.

PS1 [1] = assay: PS1 gene expression in brains of mice on a vitamin B-deprived diet (real-time PCR); type: in vivo; details: TgCRND8 mice and wild-type controls, SAM 400 μg/day, brain cDNA normalised to β-actin, FIG. 1, even lower than control diet
Experimental: (§1) In particular, the effect of SAM was tested at pharmacological concentrations (400 μg/day) on TgCRND8 mice and the corresponding wild-type controls.
(§2) RNA was extracted from cell cultures and homogenised brains, and cDNA was synthesised. 0.5 μg of total cDNA was used for each real-time reaction on an Opticon2 DNA Engine (MJ Research) using SYBR-Green reagents. The amplification efficiency for each pair of primers was previously determined by amplification of a standard linear curve. The experimental samples were compared with a standard curve of a specific gene to determine the quantity of specific cDNA present in the standard reaction. The standards were obtained from highly purified PCR products amplified by positive controls. The total cDNA levels were normalised to the β-actin control (gene housekeeping).

PS1 [2] = assay: Preliminary experiments: PS1 expression in SK-N-SH neuroblastoma line in vitamin B-deprived medium; type: cell-based; details: medium deprived of folate, vitamin B12 and vitamin B6, SAM at various concentrations, published
Experimental: (§3) Preliminary experiments have been performed on a neuroblastoma line (SK-N-SH) which expresses APP, PS1, PS2, BACE, alpha-secretase, the other components of gamma-secretase, and Notchl. The cultures were treated with a culture medium deprived of folate, vitamin B12 and vitamin B6 (in order to alter the metabolism of homocysteine), to which SAM was added at various concentrations (to balance the effects of vitamin deprivation). […] In experiments conducted with HpaII/PCR on APP and PS1 promoters, we found a major difference in the methylation of one of the CpG sites of the PS1 promoter. We concluded that the PS1 gene can be partly silenced by administration of exogenous SAM. The administration of SAM can reduce PS1 expression, restoring the metabolic balance in favour of alpha-secretase. Experiments have also been conducted with transgenic mice of the strain TgCRND8, and corresponding controls; these mice are characterised by the presence of the human mutated APP gene, and can therefore develop amyloid plaques in a short time. These animals were fed on a complete diet or a diet lacking in the vitamins of the B group; once again, as in the cells, an increase in PS1 and BACE expression was observed.

BACE [3] = assay: Preliminary experiments: BACE expression in SK-N-SH neuroblastoma line in vitamin B-deprived medium; type: cell-based; details: medium deprived of folate, vitamin B12 and vitamin B6, SAM at various concentrations, published
Experimental: as §3

[4] = SAM uptake in mouse brain after oral administration (HPLC and tritiated SAM scintillation count); type: in vivo; details: mice, 800 μg tritiated SAM; total and cleared lysates higher
Experimental: For the mice, 400 μg/day of SAM was administered orally by feeding probe needle, and the animals were sacrificed after 2 months; the animals were fed on a complete diet or a vitamin B-deprived diet, according to trial design. SAM levels were analysed by HPLC with a Varian HPLC system. The cells and homogenised brains were lysed in distilled water, and the macromolecules were precipitated with 1.5 M PCA. Standard SAM curves were calculated before and after the experimental samples. For the analysis of tritiated SAM, cells were treated as described above, while mice were treated for 4 days to minimise exposure to the radioactive drug. The cells and homogenised brains were lysed in distilled water. A portion of lysed brains was sonicated and centrifuged to separate membranes and cell organelles; another portion was treated with perchloric acid (PCA) after sonication to separate the macromolecules. The uptake of radioactive SAM was measured by scintillation with a beta counter.
A portion of the total brain lysates was also sonicated and centrifuged to obtain a cleared lysate (cytoplasm), and a further portion of this cleared lysate was precipitated with perchloric acid (PCA) to eliminate the proteins (soluble lysate).

BACE [5] = assay: BACE gene expression in brains of mice on a vitamin B-deprived diet (real-time PCR); type: in vivo; details: TgCRND8 mice and wild-type controls, SAM 400 μg/day, brain cDNA normalised to β-actin, FIG. 1, even lower than control diet
Experimental: as §1, §2

BACE [6] = assay: BACE gene expression in vitamin-deprived SK-N-BE neuroblastoma cells (real-time PCR); type: cell-based, human; details: FIG. 2, SOD and GSH to a lesser extent than SAM
Experimental: as §2
(§4) As homocysteine metabolism is involved in both methylation and oxidoreduction reactions, we tested the effect of various antioxidants on the expression of the two genes.

PS1 [7] = assay: PS1 gene expression in vitamin-deprived SK-N-BE neuroblastoma cells (real-time PCR); type: cell-based, human; details: FIG. 2, SOD and GSH to a lesser extent than SAM
Experimental: as §2, §4

intracellular levels of SAM (SK-N-BE cell cultures) | radioactivity level of soluble brain lysate (PCA-precipitated cleared lysate), as SAM [4] | Molecule | overexpression of PS1 induced by a deprived diet in vivo (PS1 [1]) | PS1 expression after the administration of SAM (PS1 [2]) | BACE expression after the administration of SAM (BACE [3]) | overexpression of BACE induced by a deprived diet in vivo (BACE [5]) | overexpression of BACE induced by vitamin deprivation (BACE [6]) | overexpression of PS1 induced by vitamin deprivation (PS1 [7])
2.5 to 3 µM | ~0.5 ng | C[S+](CC[C@H](N)C(=O)O)C[C@H]1O[C@@H](n2cnc3c(N)ncnc32)[C@H](O)[C@@H]1O (some centres unmarked) [SAM, S-adenosylmethionine] | reverses the overexpression | marked reduction | marked reduction | reverses the overexpression | – | –
– | – | SOD: enzyme superoxide dismutase, obtained by fermentation from strains of Saccharomyces cerevisiae (protein, UniProt P00445 2-154, looked up) Superoxide dismutase [Cu-Zn]: VQAVAVLKGDAGVSGVVKFEQASESEPTTVSYEIAGNSPNAERGFHIHEFGDATNGCVSAGPHFNPFKKTHGAPTDEVRHVGDMGNVKTDENGVAKGSFKDSLIKLIGPTSVVGRSVVIHAGQDDLGKGDTEESLKTGNAGPRPACGVIGLTN | – | – | – | – | inhibit overexpression | inhibit overexpression
